Read-outs that look alike come from different tables or passages of the source.
What was measured:
[1] = cited from earlier work
[2] = in the presence of CO2 and N2 mixtures; cited from earlier work
[3] = tested on: microbial growth; settings: pCO2~300 mbar; Baez A et al. 2009; cited from earlier work
[4] = tested on: Escherichia coli, strain MG1655; assay: Effect of high partial pressure of carbon dioxide on growth and metabolism of E. coli cultured on glucose (batch fermenters); format: cell-based; settings: pCO2~800 mbar
Procedure: Escherichia coli, strain MG1655 (ATCC Number 700926; American Type Culture Collection (ATCC), Manassas, Va.), was grown in batch mode in 1.4 L Multifors fermenters (Infors A G, Basel, Switzerland) equipped with temperature, pH and dO (dissolved oxygen) control. Initially, the fermenters contained in 1 L total volume: KH2PO4, 7.5 g/L; MgSO4.7H2O, 2.0 g/L; citric acid, 1.83 g/L; ferric ammonium citrate, 0.3 g/L; CaCl2.2H2O, 0.2 g/L; sulfuric acid (98%), 1.2 mL/L; yeast extract, 5 g/L; and glucose (10 g/L). After sterilization, 10 mL of a trace metal mixture and 1 mL of a thiamine solution (150 mM) was added and the medium was adjusted to the desired pH (see below) with 3 M NaOH. The trace metal mixture contained: MnSO4.H2O, 3 g/L; NaCl, 1 g/L; FeSO4.7H2O, 0.1 g/L; CoCl2.6H2O, 0.1 g/L; ZnSO4.7H2O, 0.1 g/L; CuSO4.5H2O, 0.0064 g/L; H3BO3, 0.01 g/L; and Na2MoO4.2H2O, 0.01 g/L. In one set of three fermenters, gas flow (air) was fixed at 0.5 VVM (volume per volume per minute) and pH was automatically maintained at pH 6.2, pH 6.5 and 6.8 with the addition of 3 M NaOH. […]
After equilibration with the gases, evident by the cessation of NaOH addition, the fermenters were inoculated at an initial OD600 of approximately 0.4 absorbance units (AU). […]

C=CC(=C)C [isoprene]
solubility in water ([1]; at 1 bar and 25° C.): about 642 ppm | flammable minimum oxygen concentration (MOC) value [2]: about 9.7%

C=CC=C [1,3-butadiene]
solubility in water ([1]; at 1 bar and 20° C.): about 735 ppm | flammable minimum oxygen concentration (MOC) value [2]: about 10.5%

O=C=O [carbon dioxide]
effect on microbial growth [3]: significantly inhibit microbial growth | effect on growth rate of E. coli [4]: only slight impairments of growth rate

C=C(C)C [isobutene]
solubility in water ([1]; at 1 bar and 20° C.): about 260 ppm | flammable minimum oxygen concentration (MOC) value [2]: about 13%

C=CC [propylene]
flammable minimum oxygen concentration (MOC) value [2]: about 13%
